Where two headings read alike, the source gives them in different places.
Columns and labels:
[1] = target: T1, human aromatase enzyme (human placental microsomes) (Homo sapiens, UniProt P11511); experiment: Human placental aromatase inhibition assay; format: biochemical
T1 construct: evaluated against human placental microsomes (aromatase enzyme); from tissue; host or cells: human placenta (microsomes)
T1 sequence (P11511 1-503): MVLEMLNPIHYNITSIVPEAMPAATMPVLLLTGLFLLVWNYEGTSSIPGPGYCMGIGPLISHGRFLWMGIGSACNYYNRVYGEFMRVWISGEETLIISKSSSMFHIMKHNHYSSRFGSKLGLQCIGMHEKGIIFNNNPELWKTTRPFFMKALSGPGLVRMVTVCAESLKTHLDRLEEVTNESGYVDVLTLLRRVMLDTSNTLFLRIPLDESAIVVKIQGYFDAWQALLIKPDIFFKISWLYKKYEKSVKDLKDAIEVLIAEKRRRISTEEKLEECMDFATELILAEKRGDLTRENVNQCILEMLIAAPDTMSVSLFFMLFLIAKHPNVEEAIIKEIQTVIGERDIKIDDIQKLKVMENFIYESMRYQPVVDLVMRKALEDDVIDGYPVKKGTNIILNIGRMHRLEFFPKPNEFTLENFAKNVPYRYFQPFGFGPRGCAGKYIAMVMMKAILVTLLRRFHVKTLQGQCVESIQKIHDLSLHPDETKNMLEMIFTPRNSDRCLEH

[2] = system: BJ (human fibriblast) cell line; experiment: Cytotoxicity against BJ (human fibroblast) cell line
[3] = human placental microsomes, testosterone to 17β-estradiol conversion, UPLC, read-out: IC50 against human aromatase

CC1=CC(=O)C=C2CC[C@@H]3[C@H](CC[C@]4(C)C(=O)CC[C@@]34O)[C@@]12C [Compound 2, 14α-hydroxy-1-methylandrosta-1,4-diene-3,17-dione]
IC50 [1, 3]: 9.7 ± 0.72 nM
cytotoxicity against BJ cell line [2]: non-cytotoxic

CC1=CC(=O)C=C2CC[C@@H]3[C@H](CC[C@]4(C)C(=O)CC[C@@H]34)[C@@]12C [Compound 1, atamestane, reference compound]
IC50 [1, 3]: 13.8 ± 0.2 nM

C[C@@H]1C[C@@]2(C)[C@@H](CC[C@H]3[C@@H]4CC[C@H](O)[C@@]4(C)CC[C@@]32O)CC1=O [Compound 5, 2α-methyl-9α,17β-dihydroxy-5α-androstan-3-one]
IC50 [1, 3]: 793 ± 29.9 nM
cytotoxicity against BJ cell line [2]: non-cytotoxic

CC1=C[C@@]2(C)C(=CC1=O)CC[C@H]1[C@@H]3CC[C@H](O)[C@@]3(C)[C@H](O)C[C@@H]12 [Compound 4, 2-methylandrosta-12β,17β-dihydroxy-1,4-diene-3-one]
IC50 [1, 3]: 4.23 ± 0.133 nM
cytotoxicity against BJ cell line [2]: non-cytotoxic

C=C1C[C@@H]2[C@H]([C@H](O)C[C@]3(C)[C@@H](O)CC[C@@H]23)[C@@]2(C)C=CC(=O)C=C12 [Compound 8, 11α,17β-dihydroxy-6-methylene-androsta-1,4-diene-3-one]
IC50 [1]: 12800 ± 844 nM
cytotoxicity against BJ cell line [2]: non-cytotoxic

CCCCCCC(=O)O[C@H]1CC[C@H]2[C@@H]3CC[C@H]4CC(=O)[C@H](C)C[C@]4(C)[C@H]3CC[C@]12C [Compound 3, drostanolone enanthate, reference compound]
IC50 [1, 3]: 6.4 ± 0.06 nM

Source: patent publication US20210308144A1 (priority 2021, published 2021)
